16 compounds from patent US6046231A, “Use of 4'-bromoflavone in a cancer chemopreventative composition and method” (The Board of Trustees of the University of Illinois, priority 1999, dated 2000) can be followed below.

For test [1], the system named is Hepa 1c1c7 cells. In words: Hepa 1c1c7 cell viability (cytotoxicity). The test is classed as cell-based, murine. Conditions: Mus musculus.
Test [2] concerns quinone reductase (QR), Hepa 1c1c7 cells. In words: Quinone reductase (QR) induction in Hepa 1c1c7 cells. The test is classed as cell-based, murine. Conditions: for CI, chemoprevention index (IC50/CD): 2880 min. An excerpt:
This test was used because the specific activity of QR rises concomitantly with other phase II enzymes in many animal tissues in response to various chemopreventive agents. The study included natural and synthetic B-ring substituted flavones, as well as biosynthetic precursor chalcones and flavanones.
Determination of Quinone Reductase Activity in Cell Cultures. To determine the potency of inducers, Hepa 1c1c7 murine hepatoma cells as described in the Gerhauser publication were placed in 96-well plates at a density of 1×10^4 cells/ml in 200 μl of medium. After a preincubation period of 24 hr, the media were decanted and 190 μl fresh media were added to each well. Ten (10) μl test agents dissolved in 10% DMSO (final concentration of DMSO is 0.5%) with a serial 2-fold dilutions were introduced to each well, and the plates were incubated for an additional 48 hours. Specific QR activity was determined by measuring the NADPH-dependent menadiol-mediated reduction of 3-(4, 5-dimethylthiazo-2-yl)-2,5-diphenyltetrazolium bromide to blue formazan formed per mg protein per minute. Protein was determined in an identical set of test plates by staining with crystal violet. Hepa 1c1c7 cells retain many characteristics of normal issues, particularly the capacity for carcinogen activation and metabolism. They are amenable to precise control of environmental, nutritional, and hormonal factors. […] Induction of QR activity was calculated by comparing the QR specific activity of agent-treated cells with that of solvent-treated cells, and a plot of ratio was generated. CD represents the concentration required to double QR induction. Chemopreventive index (CI) is an indexing value generated by comparing CD with IC50 (concentration for 50% inhibition of cell viability) values.
Induction of Quinone Reductase in Hepa 1c1c7 Cells. […] Modification of the B-ring of chalcones, flavanones, and flavones was hypothesized to induce torsion of the B-ring, and, therefor, simulate out-of-plane distortions characteristic of polycyclic aromatic hydrocarbons, such as DMBA. Induction of QR activity was calculated by comparing the QR specific activity of agent-treated cells with the QR specific activity of solvent-treated cells, and a plot of ratios was generated. CD represents the concentration required for a double fold of induction. CI (Chemopreventive Index) is a value obtained by comparing CD with IC50 (concentration for 50% inhibition of cell viability in […]).

Setting [3] is: Hepa-1c1c7, Hepa 1c1c7 cells, read-out: IC50, concentration for 50% inhibition of cell viability.
Setting [4] is: Mus musculus, Hepa-1c1c7, 48 h, Hepa 1c1c7 cells, 48 h, read-out: CD, concentration to double the specific activity of QR.
The mark [5] stands for this setting: Hepa 1c1c7 cells, 48 h, read-out: CD, concentration to double the specific activity of QR.
[6] abbreviates: Hepa-1c1c7, read-out: IC50, concentration for 50% inhibition of cell viability.

SMILES strings stand for the structures. Read-outs that look alike come from different tables or passages of the source.

On to `O=C1CC(c2cccc3ccccc23)Oc2ccccc21` (centres unmarked), for which the IC50 in test [1] (setting [3]) turned out to be 43 µM. Also, in test [2] (Hepa 1c1c7 cells), the Cq stood at 8.6 µM. The “CI, chemoprevention index (IC50/CD)” value in test [2] amounted to 24. Further, the EC (2-fold) in test [2] (setting [4]) was determined as 1.8 µM.

Regarding `O=c1cc(-c2ccccc2F)oc2ccccc12` [2'-Fluoroflavone], the IC50 in test [1] (setting [3]) was over 83 µM. The compound also had a Cq in test [2] (Hepa 1c1c7 cells) of 10 µM. Also, the EC (2-fold) is 0.80 µM in test [2] (setting [5]) and 0.8 µM in test [2] (setting [4]). Also, the “CI, chemoprevention index (IC50/CD)” value in test [2] came to 104.

With `COc1cccc(OC)c1/C=C/C(=O)c1ccccc1O` [2'-Hydroxy-2,6-dimethoxychalcone], the IC50 in test [1] (setting [3]) is 14 µM. The compound also returned a Cq in test [2] (Hepa 1c1c7 cells) of 3.7 µM. The EC (2-fold) in test [2] (setting [5]) came to 0.54 µM; in test [2] (setting [4]), 0.53 µM. For the same compound, in test [2], the “CI, chemoprevention index (IC50/CD)” value turned out to be 26.

For the compound `COc1ccccc1/C=C/C(=O)c1ccccc1O` [2'-Hydroxy-2-methoxychalcone], in test [1] (setting [3]), the IC50 was determined as 17 µM. The compound also yielded a Cq in test [2] (Hepa 1c1c7 cells) of 1.8 µM. In addition, in test [2], the “CI, chemoprevention index (IC50/CD)” value stood at 55. In test [2] (setting [4]), the EC (2-fold) worked out at 0.31 µM.

On to `Cc1ccccc1/C=C/C(=O)c1ccccc1O` [2'-Hydroxy-2-methylchalcone], for which the IC50 in test [1] (setting [3]) amounted to 36 µM. The compound also returned a Cq in test [2] (Hepa 1c1c7 cells) of 9.0 µM. For the same compound, in test [2], the “CI, chemoprevention index (IC50/CD)” value came to 54. The EC (2-fold) in test [2] (setting [4]) is 0.67 µM.

As to `O=C(/C=C/c1ccccc1[N+](=O)[O-])c1ccccc1O` [2'-Hydroxy-2-nitrochalcone], in test [1] (setting [3]), the IC50 was 11 µM. In test [2] (Hepa 1c1c7 cells), this compound had a Cq of 3.6 µM. For the same compound, in test [2], the “CI, chemoprevention index (IC50/CD)” value was found to be 37. The EC (2-fold) in test [2] (setting [4]) came out at 0.3 µM.

On to `O=C(/C=C/c1cccc(C(F)(F)F)c1)c1ccccc1O` [2'-Hydroxy-3-trifluoromethylchalcone], for which the IC50 in test [1] (setting [3]) stood at 12.8 µM. In addition, the Cq in test [2] (Hepa 1c1c7 cells) is 0.55 µM. The “CI, chemoprevention index (IC50/CD)” value in test [2] is reported as over 23. In addition, the EC (2-fold) in test [2] (setting [4]) was under 0.55 µM.

Consider `O=C(/C=C/c1ccc(C(F)(F)F)cc1)c1ccccc1O` [2'-Hydroxy-4-trifluoromethylchalcone], for which, in test [1] (setting [3]), the IC50 came to 55 µM. Further, in test [2] (Hepa 1c1c7 cells), the Cq amounted to 1 µM. In test [2], the “CI, chemoprevention index (IC50/CD)” value was over 100. The EC (2-fold) in test [2] (setting [4]) is under 0.55 µM.

For the compound `COc1ccccc1C1CC(=O)c2ccccc2O1` (centres unmarked) [2'-Methoxyflavanone], the IC50 in test [1] (setting [3]) was over 79 µM. In addition, in test [2] (Hepa 1c1c7 cells), the Cq is 6.9 µM. Further, in test [2], the “CI, chemoprevention index (IC50/CD)” value is given as over 125. For the same compound, the EC (2-fold) in test [2] (setting [4]) amounted to 0.63 µM.

For `Cc1ccccc1C1CC(=O)c2ccccc2O1` (centres unmarked) [2'-Methylflavanone], the IC50 in test [1] (setting [3]) turned out to be 81 µM. The same compound had a Cq in test [2] (Hepa 1c1c7 cells) of 6.8 µM. In addition, the EC (2-fold) came out at 1.00 µM in test [2] (setting [5]) and 1 µM in test [2] (setting [4]). In addition, in test [2], the “CI, chemoprevention index (IC50/CD)” value is recorded as 81.

On to `COc1ccccc1-c1cc(=O)c2ccccc2o1` [2'-methoxyflavone], for which, in test [2] (setting [4]), the EC (2-fold) lay within 0.01 to 1 µM.

As for `O=C(/C=C/c1ccccc1Br)c1ccccc1O` [2-Bromo-2'-hydroxychalcone], in test [1] (setting [6]), the IC50 was found to be 11 µM. In test [2] (Hepa 1c1c7 cells), the Cq was determined as 2.0 µM. Further, the “CI, chemoprevention index (IC50/CD)” value in test [2] is reported as 21. Moreover, the EC (2-fold) in test [2] (Mus musculus, Hepa-1c1c7, 48 h, read-out: CD, concentration to double the specific activity of QR, Hepa 1c1c7 cells, 48 h) was found to be 0.53 µM.

As to `O=c1cc(-c2cccc(Br)c2)oc2ccccc12` [3'-Bromoflavone], the IC50 in test [1] (setting [3]) was determined as 3.2 µM. The compound further registered a Cq in test [2] (Hepa 1c1c7 cells) of 4.4 µM. Further, the “CI, chemoprevention index (IC50/CD)” value in test [2] was determined as 32. Also, the EC (2-fold) in test [2] (setting [4]) came to 0.1 µM.

As for `O=c1cc(-c2cccc(Cl)c2)oc2ccccc12` [3'-Chloroflavone], the IC50 in test [1] (setting [6]) was 23 µM. Besides, in test [2] (Hepa 1c1c7 cells), the Cq result is recorded as “toxic”. Besides, the EC (2-fold) in test [2] (Hepa 1c1c7 cells, 48 h, listed as 3'-chloroflavone, read-out: CD, concentration to double the specific activity of QR) is given as 0.27 µM; in test [2] (setting [5]), under 0.58 µM. In test [2], the “CI, chemoprevention index (IC50/CD)” value is given as over 40.

Turning to `O=c1cc(-c2cccc(F)c2)oc2ccccc12` [3'-Fluoroflavone], the IC50 in test [1] (setting [3]) came to 42 µM. The compound further came in with a Cq in test [2] (Hepa 1c1c7 cells) of 1.24 µM. Also, the “CI, chemoprevention index (IC50/CD)” value in test [2] stood at 63. Besides, in test [2] (setting [4]), the EC (2-fold) was determined as 0.67 µM.

For `O=C(/C=C/c1ccccc1)c1ccccc1` [Chalcone, reference compound], the IC50 in test [1] (setting [3]) stood at 33 µM.
